Assay results published in patent US7144860B2, “Heart homing conjugates” (priority 1999, dated 2006).
“Also recorded” adds a separate entry of the source.

Experiments:
[1] = tested on: ischemic/reperfused myocardium; assay: In vivo phage homing to ischemia-reperfusion injured heart (phage per gram heart / phage per gram brain); design: species or system mice; settings: for Enrichment (relative enrichment compared with insertless phage): Targeted tissue Ischemic Heart; for Enrichment (relative enrichment compared with insertless phage) / Homing to ischemic/reperfused myocardium (in words): individual phage; for Homing to ischemic/reperfused myocardium (in words): ischemia-reperfusion injured animals
Procedure: Individual phage obtained from screening in ischemic-reperfused hearts were injected at 5×10^9 TU intravenously into normal animals (open squares) or animals subject to 30 minutes myocardial ischemia by occlusion of the left anterior descending (LAD) coronary artery followed by 30 minutes reperfusion (closed circles). Phage were allowed to circulate for 5 minutes prior to perfusion of the vasculature and harvesting of the heart and brain. The number of phage recovered from the heart (per gram) was normalized by the number of phage recovered from the brain (per gram). […] The data shown are-the logarithmic means and logarithmic standard errors of the multiple experiments.
The number of phage recovered from the heart (per gram) was normalized by the number of phage recovered from the brain (per gram). The data shown are the logarithmic means and logarithmic standard errors for six to seven individual experiments.
(§1) All data were calculated as the ratio of the number of phage obtained per gram of heart tissue to the number of phage obtained per gram of brain tissue. Means, standard deviations, standard errors and parametric statistics were based on the assumption that this ratio is derived from a log-normal distribution.
Ischemia-reperfusion was performed as follows using large male CD-1 mice weighing about 40 grams to facilitate the surgical protocol. Briefly, mice were anesthetized by an intramuscular injection of a mixture of xylazine (50 mg/kg) and ketamine (50 mg/kg) and subsequently intubated with an endotracheal tube and ventilated with a mixture of oxygen and room air using a Harvard Apparatus (0.05 ml; 100 bpm). The heart was exposed with a left thoracotomy, and a 7-0 suture was placed under the left anterior descending (LAD) coronary artery; the vessel was occluded by tying a knot over a small piece of polyethylene tubing (PE50). Ischemia was confirmed by cyanosis of the myocardium. After 30 minutes of occlusion, the knot was cut and blood flow restored to the region. Reperfusion was allowed to proceed for 30 minutes before phage targeting to allow for some vascular changes while limiting neutrophil recruitment to the area.

[2] = tested on: normal heart; assay: In vivo phage homing to normal heart (phage per gram heart / phage per gram brain); design: species or system mice; settings: for Enrichment (relative enrichment compared with insertless phage): Targeted tissue Normal Heart, n=6 or 7 animals; for Enrichment (relative enrichment compared with insertless phage) / Homing to normal heart (in words): individual phage; for Enrichment in normal heart as compared to brain: normal heart versus control brain tissue, phage expressing the peptide; for Homing to normal heart (in words): normal animals
Procedure: Individual phage (5×10^9 TU) were injected intravenously and allowed to circulate for 5 minutes prior to perfusion of the vasculature and harvesting of the heart and brain. The number of phage recovered from the heart (per gram) was normalized by the number of phage recovered from the brain (per gram). Fd-tet was a phage without any additional peptide insert. […] The data shown are the logarithmic means and logarithmic standard errors of the multiple experiments.
In vivo panning was performed to identify phage that selectively home to normal coronary endothelium by injection of phage libraries and isolation of individual phage from the heart as follows. […] Both linear (X7 (SEQ ID NO: 1)) and cyclic (CX7C (SEQ ID NO: 13), CX9C (SEQ ID NO: 14), and CX11C (SEQ ID NO: 15)) libraries were used, where “C” indicates cysteine and “XN” indicates the given number of individually selected amino acids.
Libraries were administered independently with the initial titer of the various libraries. In vivo phage selection was performed as described in Pasqualini and Ruoslahti, Nature 380:364–366 (1996), with a few modifications. In both normal and ischemic targeting, 2.5×10^8 transducing units of the initial phage libraries were injected intravenously into the jugular vein. After 5 minutes of phage circulation in vivo, the heart was arrested by intraventricular injection of a hyperkalemic (30 mM KCl), hypothermic solution of DMEM, and the vasculature cleared of blood by perfusion with 5–10 ml of hyperkalemic DMEM through a left ventricular cannula. After the heart and brain were harvested, homogenized and weighed, phage were rescued by infection with K91 Kan bacteria. For the second and third rounds of selection, 200 normal or 100 ischemic clones were picked from the previous round and individually grown to saturation. Cultures were then pooled, phage particles purified and 10^10 TU of a pool reinjected into similarly treated mice.
as §1

[3] = tested on: ischemic left ventricle; assay: Phage recovered from injured left ventricle versus right ventricle and septum, ischemic hearts; type: in vivo, mice; settings: animals after myocardial ischemia-reperfusion
Procedure: The number of phage recovered from the left ventricle (g^−1) was normalized by the number of phage recovered from the right ventricle and septum (g^−1). The overall data shown are a logarithmic mean and logarithmic standard deviation for 47 normal and 35 ischemic hearts. The data for phage bearing SEQ ID NO: 10 (R13) are for six individual animals each.
Ischemia-reperfusion was performed as follows using large male CD-1 mice weighing about 40 grams to facilitate the surgical protocol. Briefly, mice were anesthetized by an intramuscular injection of a mixture of xylazine (50 mg/kg) and ketamine (50 mg/kg) and subsequently intubated with an endotracheal tube and ventilated with a mixture of oxygen and room air using a Harvard Apparatus (0.05 ml; 100 bpm). The heart was exposed with a left thoracotomy, and a 7-0 suture was placed under the left anterior descending (LAD) coronary artery; the vessel was occluded by tying a knot over a small piece of polyethylene tubing (PE50). Ischemia was confirmed by cyanosis of the myocardium. […]
As a further test of specificity for homing to ischemic heart, phage homing to the injured left ventricle was compared to homing to the normal right ventricle and septum. […] When the ratio of phage accumulation in the left ventricle only is calculated relative to accumulation in the brain, the preferential accumulation of […] […]

Row | Substance | Enrichment (relative enrichment compared with insertless phage) [1] [fold] | Enrichment (relative enrichment compared with insertless phage) [2] [fold] | Enrichment in normal heart as compared to brain [2] | Homing to normal heart (in words) [2] | Homing to ischemic/reperfused myocardium (in words) [1] | further results
1 | CLHRGNSC (phage displayed) [SEQ ID NO: 9] | ~2 | ~2 | at least two-fold |  |  | Enrichment (relative enrichment compared with insertless phage) ([2]; listed as 9): 2-fold
2 | CRSWNKADNRSC (phage displayed) [SEQ ID NO: 10] | 5 |  |  | did not target the normal heart |  | Enrichment (relative enrichment compared with insertless phage) ([1]; listed as 10): 5-fold; Phage accumulation in the left ventricle only relative to accumulation in the brain ([1]; ischemia-reperfusion injured hearts, left ventricle only): 7 fold; Preferential homing to the ischemic left ventricle versus right ventricle (in words) [3]: more phage were recovered from the injured left ventricle than the right ventricle; also recorded: preferentially homed to the ischemic left ventricle as compared to the uninjured right ventricle
3 | GGGVFWQ (phage displayed) [SEQ ID NO: 2] |  | ~5 |  | binds to normal heart; also recorded: strongly targeted the normal myocardium | remained enriched | Enrichment (relative enrichment compared with insertless phage) ([2]; listed as 2): 5-fold
4 | HGRVRPH (phage displayed) [SEQ ID NO: 3] |  | ~2 | at least two-fold |  |  | Enrichment (relative enrichment compared with insertless phage) ([2]; listed as 3): 2-fold
5 | RPGRLNG (phage displayed) [SEQ ID NO: 8] |  |  |  | did not home to normal heart; also recorded: clearly did not target the normal myocardium | did not change | 
6 | VVLVTSS (phage displayed) [SEQ ID NO: 4] |  | ~2 | at least two-fold |  |  | Enrichment (relative enrichment compared with insertless phage) ([2]; listed as 4): 2-fold
